We go through four compounds from PMC6033897, “Characterization and Validation of a Human 3D Cardiac Microtissue for the Assessment of Changes in Cardiac Pathology” (Scientific Reports, 2018).

Series [1] relates to cardiac microtissues. The series can be described thus: Cellular viability (ATP depletion, CellTiter-Glo) in cardiac microtissues. The class given is cell-based, human. As to conditions: Homo sapiens, cardiac microtissues, read-out: Cellular viability (ATP depletion) IC50. As to the method: (§1) Cellular ATP concentrations were assessed using the CellTiter-Glo® Luminescent Cell Viability Assay as per the manufacturer’s instructions (Promega); for cardiac microtissues 40 µl media was removed prior to the addition of 40 µl CellTiter-Glo® reagent. […] Data from the same treatment on minimum of 3 occasions were averaged to represent the mean ATP measurement.
Background: ATP-based viability assays read luminescence as a measure of living cells.

For series [2], the system named is cardiac microtissues. The series can be described thus: ER integrity (ER-Tracker blue imaging) in cardiac microtissues. In kind it is cell-based, human. As to conditions: Homo sapiens; cardiac microtissues, 72 hours, geometric mean; read-out: ER integrity IC50. As for the experimental part:
(§2) Cardiac microtissues were stained with fluorescent probes in cell culture media, 40 µl media was removed and 40 µl of 2x multiplexed dye was added back to the well for 30 minutes at 37 °C, 5% CO2. Fluorescent probes used were ER-Tracker blue (2 µM) to measure endoplasmic reticulum (ER) integrity and TMRE (500 nM) to measure mitochondrial membrane potential (ΔΨm). All microtissues were imaged on a Cell Voyager 7000 (YokogawaInc.) and images captured using a 20x objective (Olympus UPLSAPO 0.75 NA, 0.6 mm WD), with a 2 × 2 bin. Plates are imaged live, prior to use the stage temperature was set to 37 °C and CO2 level at 5%. […] Transmitted light images were acquired using a 100 W Halogen lamp as an illumination source. Images were captured over a 60 μm range in the Z-axis with a 5 μm interval between slices. Z-stack images were output as a maximal projection of multiple z-planes.
(§3) Maximum projection images were imported and analysed in the Columbus Platform (v2.7, Perkin Elmer Inc.).

Series [3] has as its system cardiac microtissues. The series can be described thus: Mitochondrial membrane potential (ΔΨm, TMRE imaging) in cardiac microtissues. The class given is cell-based, human. As to conditions: Homo sapiens; cardiac microtissues, 72 hours, geometric mean; read-out: Mitochondrial membrane potential (ΔΨm) IC50. As for the experimental part:
as §2, §3

Series [4] relates to cardiac microtissues. As to the kind of experiment: Therapeutic index (IC50 in cardiac microtissues divided by total Cmax). In kind it is cell-based, human.
Experimental: The outcome of a drug being either toxic or non-toxic is determined by exposure. Consequently, it is important to consider therapeutically relevant maximum total plasma concentrations (Cmax) when investigating drug-induced toxicity. We questioned whether this approach can detect changes in drug-induced cardiac structure at relevant therapeutic concentrations. […] The cardiac structural changes of compounds could be divided into four categories: (1) at least one parameter modulated at a concentration of within 10-times the Cmax, (2) at least one parameter modulated at a concentration of within 100-times the Cmax, (3) changes in cardiac structure occurred at concentrations of above 100-times the Cmax concentration, (4) the changes in cardiac structure was not detected in this approach (i.e. no IC50 value could be calculated).
The subject of series [5] is hCMEC. The series can be described thus: ER integrity in 2D monoculture. In kind it is cell-based. As to conditions: Homo sapiens. As for the experimental part: (§4) For 2D monoculture, hiPS-CM, hCMEC and hCF were cultured as described above and seeded in CellCarrier-384 Ultra microplates (Perkin Elmer, 6057300) at 5000, 2500 and 1750 cells/well respectively.
(§5) Monoculture cells were stained with fluorescent probes diluted in cell culture media, 25 µl media was removed and 25 µl of 2x multiplexed dye was added back to the well for 15 minutes at 37 °C, 5% CO2.

Series [6] concerns hiPS-CM. The series can be described thus: ER integrity in 2D monoculture. In kind it is cell-based. As to conditions: Homo sapiens. As to the method: as §4, §5
The test system of series [7] is hCMEC. As to the kind of experiment: Mitochondrial membrane potential (ΔΨm) in 2D monoculture. The class given is cell-based. To be noted: Homo sapiens. As to the method: as §4, §5
Series [8] relates to hiPS-CM. The description is as above. In kind it is cell-based. As to conditions: Homo sapiens. As for the experimental part:
as §4, §5

In series [9] the test system is hCMEC. The series can be described thus: Cellular viability (ATP depletion) in 2D monoculture. The class given is cell-based. As to conditions: Homo sapiens. As for the experimental part:
as §4, §1

In series [10] the test system is hiPS-CM. Described as above. In kind it is cell-based. To be noted: Homo sapiens. As for the experimental part:
as §4, §1

Another series has as its system cardiac spheroids. Also on record: method as in PMID 28765558. To be noted: alternative cardiac spheroids; cited from earlier work.
For series [11] the following is noted: total Cmax, therapeutically relevant maximum total plasma concentration; source not given; cited from earlier work.
For series [12], the system named is hCF. As to the kind of experiment: ER integrity in 2D monoculture. To be noted: Homo sapiens, read-out: ER integrity IC50.
In series [13] the test system is hCF. As to the kind of experiment: Cellular viability (ATP depletion) in 2D monoculture. To be noted: Homo sapiens, read-out: Cellular viability (ATP depletion) IC50.
Series [14] relates to hCF. The series can be described thus: Mitochondrial membrane potential (ΔΨm) in 2D monoculture. As to conditions: Homo sapiens, read-out: Mitochondrial membrane potential (ΔΨm) IC50.
In a further series the test system is H9c2 cells. Also on record: method as in PMID 18664550. To be noted: read-out: reported IC50 value in H9c2 cells; cited from earlier work.
The test system of another series is hESC-CMs. To be noted: read-out: reported IC50 value in hESC-CMs; cited from earlier work.
Series [15] has as its system cardiac microtissues. As to the kind of experiment: Histopathology (H&E, IHC, IF) of treated cardiac microtissues. The class given is cell-based, human. As to conditions: 24 hours; sunitinib 100 µM; doxorubicin 0.1 and 30 µM (Fig. 2). As for the experimental part: Microtissues were harvested from 384 well-plates and washed twice in 1x PBS (Sigma P7059) subsequent to fixation in 3.7% paraformaldehyde (PFA) (Sigma F1635) at 4 °C for one hour. The 3.7% PFA was then removed and replaced with two washes of 1x PBS. The PBS was removed and replaced with liquid HistoGel (Thermo Fisher HG-4000-012) and left on ice for 30 minutes to solidify. The HistoGel pellet was placed into a histological cassette and processed using an enclosed tissue processor overnight. The HistoGel was then embedded using paraffin wax.
The formalin fixed paraffin embedded (FFPE) blocks were then sectioned at each time point at three 50 µm step levels with 8 × serial sections per level at 3 µm. H&E staining was performed on microtissue sections using Mayer’s Haematoxylin using a standard automated protocol. Standard automated immunohistochemistry (IHC) and immunofluorescence (IF) protocols were used for primary antibody detection at different dilutions (Supplementary Table 3) on microtissue sections. Diaminobenzadine (DAB) (Roche Diagnostics 760–159) was used to visualise positive staining in single-plex staining and Alkaline Phosphatase Fast Red (Roche Diagnostics 760–160) with DAB were used in dual staining, with a haematoxylin counterstain. […] A minimum of 15 microtissues per time point/treatment were evaluated. […]

SMILES strings stand for the structures. Where a name gives a salt, the structure may show the parent alone. A value given as a limit tells only on which side of the number the result lay.

Consider `Cc1nc(Nc2ncc(C(=O)Nc3c(C)cccc3Cl)s2)cc(N2CCN(CCO)CC2)n1` [Dasatinib], for which the IC50 (as a rule, the point on the concentration scale where inhibition reaches its midpoint) in the series on cardiac microtissues [1] (72 hours, geometric mean) is 27.1 µM; in the series on cardiac microtissues [2], more than 100 µM; with cardiac microtissues [3] it was more than 100 µM. In the series with cardiac microtissues [4], the “Therapeutic index (TI): lowest IC50 of ΔΨm, ER integrity or ATP depletion / total Cmax” value is on record as not above 100 times Cmax.
`COc1cccc2c1C(=O)c1c(O)c3c(c(O)c1C2=O)C[C@@](O)(C(=O)CO)C[C@@H]3O[C@H]1C[C@H](N)[C@H](O)[C@H](C)O1` [Doxorubicin HCl]: the IC50 with cardiac microtissues [1] (24 hours) is 15.5 µM; with cardiac microtissues [1] (72 hours, geometric mean), 0.83 µM; in the series with cardiac microtissues [2] it was 3.18 µM; in the series on cardiac microtissues [3], 0.18 µM; in the series on hCMEC [5] (24 hours), 43.6 µM; in the series with hCMEC [5] (72 hours), 31 µM. Besides, the IC50 in the series with hiPS-CM [6] (24 hours) is 10.5 µM; in the series on hiPS-CM [6] (72 hours), 76.5 µM; with hCMEC [7] (24 hours), more than 50 µM; with hCMEC [7] (72 hours), more than 50 µM; with hiPS-CM [8] (24 hours), 8.28 µM; in the series with hiPS-CM [8] (72 hours), 16.9 µM. Also, the half-inhibitory concentration (IC50) is 1.03 µM with hCMEC [9] (24 hours); 0.1 µM in the series on hCMEC [9] (72 hours); 9.26 µM with hiPS-CM [10] (24 hours); 1.01 µM with hiPS-CM [10] (72 hours); 6.39 µM in the series on hCF [12] (24 h); 46.6 µM in the series with hCF [12] (72 h). Besides, the IC50 in the series on hCF [13] (24 h) was 0.62 µM; in the series with hCF [13] (72 h), 0.11 µM; in the series with hCF [14] (24 h) it was more than 50 µM; in the series with hCF [14] (72 h), more than 50 µM. Moreover, in the series with cardiac spheroids, the “Concentration range with significant change in live/dead staining” value is 5 to 40 µM. The Cmax (commonly the maximum level reached in the sampled fluid or tissue) in [11] was 15.3 µM.
For the compound `CNC(=O)c1cc(Oc2ccc(NC(=O)Nc3ccc(Cl)c(C(F)(F)F)c3)cc2)ccn1` [Sorafenib Tosylate], the IC50 was 8.72 µM with cardiac microtissues [1] (72 hours, geometric mean); 6.42 µM in the series with cardiac microtissues [2]; 8.22 µM with cardiac microtissues [3]; 44.9 µM in the series on H9c2 cells; 15.2 µM in the series on hESC-CMs.
For the compound `CCN(CC)CCNC(=O)c1c(C)[nH]c(/C=C2\C(=O)Nc3ccc(F)cc32)c1C` [Sunitinib Malate], the IC50 in the series with cardiac microtissues [1] (24 hours) worked out at 46.2 µM; in the series on cardiac microtissues [1] (72 hours, geometric mean) it was 8.23 µM; in the series on cardiac microtissues [2], 0.39 µM; in the series with cardiac microtissues [3], 2.58 µM; in the series with hCMEC [5] (24 hours) it was 2.96 µM; with hCMEC [5] (72 hours) it was 12.7 µM. In addition, the IC50 was found to be 4.48 µM in the series with hiPS-CM [6] (24 hours); 2.63 µM with hiPS-CM [6] (72 hours); 9.57 µM in the series with hCMEC [7] (24 hours); 2.97 µM with hCMEC [7] (72 hours); 16.1 µM in the series with hiPS-CM [8] (24 hours); 16.2 µM in the series with hiPS-CM [8] (72 hours). The IC50 with hCMEC [9] (24 hours) turned out to be 4.9 µM; in the series on hCMEC [9] (72 hours) it was 0.8 µM; with hiPS-CM [10] (24 hours), 24.7 µM; in the series on hiPS-CM [10] (72 hours), 27.1 µM; in the series with hCF [12] (24 h) it was 6.59 µM; in the series with hCF [12] (72 h), 0.37 µM. In addition, the IC50 turned out to be 16.5 µM with hCF [13] (24 h), 4 µM with hCF [13] (72 h), 17.8 µM in the series with hCF [14] (24 h) and 11.6 µM with hCF [14] (72 h). The “Histopathological / morphological changes” value in the series on cardiac microtissues [15] is recorded as “clear reduction in overall cellularity”. Besides, the Cmax in [11] is 0.25 µM.
